# Assay results published in paper PMC7561186, “Rational design of balanced dual-targeting antibiotics with limited resistance” (PLoS Biology, 2020).
# Read-outs that look alike come from different tables or passages of the source.
# Test system: S. aureus clinical isolates
# Test: microbe, parasite or virus in culture
# Format: cell-based
# Details: Staphylococcus aureus, read-out: MIC
structure (smiles),measurement,setting,value
CC(=O)NC[C@H]1CN(c2ccc(N3CCOCC3)c(F)c2)C(=O)O1 [Linezolid],MIC,"MRSA, S. aureus IHMA 1621638, MRSA / VSSA",2 µg/mL
same,MIC,"MRSA, S. aureus IHMA 1622252, MRSA / VSSA",4 µg/mL
same,MIC,"MRSA, S. aureus IHMA 1622527, MRSA / VSSA",4 µg/mL
same,MIC,"MRSA, S. aureus IHMA 1666371, MRSA / VSSA",0.5 µg/mL
same,MIC,"MRSA, S. aureus IHMA 1695391, MRSA / VSSA",2 µg/mL
same,MIC,"MRSA, S. aureus IHMA 1703428, MRSA / VSSA",2 µg/mL
same,MIC,"MRSA, S. aureus IHMA 1720350, MRSA / VSSA",2 µg/mL
same,MIC,"MRSA, S. aureus IHMA 1732989, MRSA / VSSA",4 µg/mL
same,MIC,"MRSA, S. aureus IHMA 1742231, MRSA / VSSA",2 µg/mL
same,MIC,"MRSA, S. aureus IHMA 1766357, MRSA / VSSA",4 µg/mL
same,MIC,"MSSA / NRS 12 / VISA, S. aureus IHMA 1308244, NRS12, MSSA / VISA",4 µg/mL
same,MIC,"MSSA / NRS 13 / VISA, S. aureus IHMA 1308245, NRS13, MSSA / VISA",2 µg/mL
same,MIC,"MSSA / NRS 14 / VISA, S. aureus IHMA 1308246, NRS14, MSSA / VISA",2 µg/mL
same,MIC,"MSSA / NRS 17 / VISA, S. aureus IHMA 1308247, NRS17, MSSA / VISA",2 µg/mL
same,MIC,"MSSA / NRS 28 / VISA, S. aureus IHMA 1308249, NRS28, MSSA / VISA",0.5 µg/mL
same,MIC,"MSSA / NRS 52, S. aureus IHMA 1308252, NRS52, MSSA / VSSA* (*Expected VAN intermediate, confirmed VAN susceptible twice), test date 2018-11-07",1 µg/mL
same,MIC,"MSSA / USA100 / VRSA, S. aureus IHMA 672236, VRS6, MSSA / VRSA, USA100",1 µg/mL
same,MIC,"MSSA, S. aureus IHMA 1563826, MSSA / VSSA",4 µg/mL
same,MIC,"MSSA, S. aureus IHMA 1565492, MSSA / VSSA",2 µg/mL
same,MIC,"MSSA, S. aureus IHMA 1569499, MSSA / VSSA",2 µg/mL
same,MIC,"MSSA, S. aureus IHMA 1569754, MSSA / VSSA",2 µg/mL
same,MIC,"MSSA, S. aureus IHMA 1574202, MSSA / VSSA",2 µg/mL
same,MIC,"MSSA, S. aureus IHMA 1575652, MSSA / VSSA",4 µg/mL
same,MIC,"MSSA, S. aureus IHMA 1575779, MSSA / VSSA",2 µg/mL
same,MIC,"MSSA, S. aureus IHMA 1576329, MSSA / VSSA",4 µg/mL
same,MIC,"MSSA, S. aureus IHMA 1577800, MSSA / VSSA",4 µg/mL
same,MIC,"MSSA, S. aureus IHMA 1578560, MSSA / VSSA",4 µg/mL
same,MIC,"MSSA, S. aureus IHMA 1580233, MSSA / VSSA",2 µg/mL
same,MIC,"MSSA, S. aureus IHMA 1580925, MSSA / VSSA",2 µg/mL
same,MIC,"MSSA, S. aureus IHMA 1580955, MSSA / VSSA",2 µg/mL
same,MIC,"MSSA, S. aureus IHMA 1582586, MSSA / VSSA",8 µg/mL
same,MIC,"MSSA, S. aureus IHMA 1582691, MSSA / VSSA",2 µg/mL
same,MIC,"MSSA, S. aureus IHMA 1584230, MSSA / VSSA",4 µg/mL
same,MIC,"MSSA, S. aureus IHMA 1587279, MSSA / VSSA",1 µg/mL
same,MIC,"MSSA, S. aureus IHMA 1591459, MSSA / VSSA",2 µg/mL
same,MIC,"MSSA, S. aureus IHMA 1592749, MSSA / VSSA",2 µg/mL
same,MIC,"MSSA, S. aureus IHMA 1592751, MSSA / VSSA",4 µg/mL
same,MIC,"MSSA, S. aureus IHMA 1594297, MSSA / VSSA",2 µg/mL
same,MIC,"MSSA, S. aureus IHMA 1597120, MSSA / VSSA",4 µg/mL
same,MIC,"MSSA, S. aureus IHMA 1597125, MSSA / VSSA",2 µg/mL
same,MIC,"MSSA, S. aureus IHMA 1599157, MSSA / VSSA",2 µg/mL
same,MIC,"MSSA, S. aureus IHMA 1599506, MSSA / VSSA",4 µg/mL
same,MIC,"MSSA, S. aureus IHMA 1602078, MSSA / VSSA",4 µg/mL
same,MIC,"MSSA, S. aureus IHMA 1604586, MSSA / VSSA",2 µg/mL
same,MIC,"MSSA, S. aureus IHMA 1604609, MSSA / VSSA",2 µg/mL
same,MIC,"MSSA, S. aureus IHMA 1609919, MSSA / VSSA",2 µg/mL
same,MIC,"MSSA, S. aureus IHMA 1622864, MSSA / VSSA",2 µg/mL
same,MIC,"MSSA, S. aureus IHMA 1626392, MSSA / VSSA",2 µg/mL
same,MIC,"MSSA, S. aureus IHMA 1713793, MSSA / VSSA",2 µg/mL
